Measured values reported in patent publication US20140023611A1 (priority 2010, published 2014).

Key:
[1] = Fecal recovery of orally administered compounds; format: in vivo, Sprague-Dawley rats; conditions: Structure (I) examples, Table 16; rat, oral gavage, feces collected until 48 hr after dosing
Excerpt: (§1) The animals were kept in metabolic cages and feces were collected from the time of dosing until 48 hr after dosing. Upon collection, feces were dried by lyophilization and ground to a visually homogenous powder. Duplicate samples of ground feces from each individual animal were weighed out and extracted using organic solvent. […] Extraction conditions were not optimized for individual compounds, and thus may represent a minimal level of recovery.
as §1, with “collection, feces was dried by” for “collection, feces were dried by”
as §1, with “collection, feces was dried by” for “collection, feces were dried by”
The animals were kept in metabolic cages and feces were collected from the time of dosing until 48 hr after dosing. Upon collection, feces was dried by lyophilization and ground to a visually homogenous powder. Duplicate samples of ground feces from each individual animal were weighed out and extracted using organic solvent.

rat NaP2b (SLC34A2) = target: T1, rat NaP2b (SLC34A2) (Rattus norvegicus, UniProt Q9JJ09); assay: Inhibition of NaP2b-mediated Pi (33P) uptake in transfected HEK293 cells, rat NaP2b; format: cell-based; conditions: 33P Pi uptake, 0.1 mM phosphate, value given as pIC50 range
T1 construct: host or cells: HEK293
T1 sequence (Q9JJ09 1-695): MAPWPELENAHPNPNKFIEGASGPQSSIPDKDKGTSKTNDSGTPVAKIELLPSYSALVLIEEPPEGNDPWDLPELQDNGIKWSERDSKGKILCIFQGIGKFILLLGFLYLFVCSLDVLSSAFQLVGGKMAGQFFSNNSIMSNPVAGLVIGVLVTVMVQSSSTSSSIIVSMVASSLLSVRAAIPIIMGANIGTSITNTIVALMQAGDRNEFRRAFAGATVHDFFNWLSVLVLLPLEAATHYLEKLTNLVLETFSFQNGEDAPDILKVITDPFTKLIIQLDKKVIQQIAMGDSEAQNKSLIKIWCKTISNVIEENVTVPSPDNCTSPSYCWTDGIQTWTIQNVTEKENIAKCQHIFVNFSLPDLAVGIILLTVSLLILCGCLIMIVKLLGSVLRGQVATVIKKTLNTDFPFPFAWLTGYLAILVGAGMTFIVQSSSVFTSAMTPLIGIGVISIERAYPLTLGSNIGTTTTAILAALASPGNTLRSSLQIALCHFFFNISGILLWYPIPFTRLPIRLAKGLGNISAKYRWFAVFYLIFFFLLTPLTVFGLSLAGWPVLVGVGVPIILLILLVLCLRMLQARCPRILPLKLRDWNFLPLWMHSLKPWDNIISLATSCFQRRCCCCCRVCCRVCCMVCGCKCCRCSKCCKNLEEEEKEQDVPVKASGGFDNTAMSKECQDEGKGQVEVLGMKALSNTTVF
Method in brief: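 HEK293 cells were transiently transfected with NaP2b cDNA using Lipofectamine and grown near confluence. Compounds were tested at twelve concentrations from 0.1 nM to 30 uM in duplicate, and 33P-phosphate uptake was counted by scintillation after lysis. Results are expressed as pIC50.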

[2] = Determination of compound Cmax and AUC after oral gavage (plasma LC-MS/MS); format: in vivo, Sprague-Dawley rats; conditions: Sprague-Dawley, rat, plasma, po, Structure (I) examples, Table 15, actual oral dose 3-15 mg/kg, plasma 0.5-4 h
Method in brief: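 Sprague-Dawley rats dosed by oral gavage at nominal 2.5 or 10 mg/kg; blood drawn at 0.5, 1, 2 and 4 h into K2EDTA. Plasma protein-precipitated with acetonitrile plus internal standard and analysed by LC-MS/MS against a plasma standard curve to derive Cmax and AUC.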

[3] = test system: Uptake of Phosphorus from the Intestine; assay: In vivo co-dosing in chow (urine P out / P consumed); conditions: Rattus norvegicus, feed or water, rats, compound in chow, read-out: Mean % inhibition Urine Pout/P consumed; for inhibition in vivo at 100 mg/kg/day: mean drug dose 100 mg/kg/day
Excerpt: Male, 7-week-old Sprague-Dawley rats (Charles-River laboratories international, Hollister, Calif.) were allowed to acclimate for a minimum of 3 days. The experiment was initiated by switching animals to a synthetic diet (0.6% phosphorus and 0.6% calcium, Harlan Teklad TD.84122) for four days. After this time, the animals were placed into metabolic cages for daily monitoring of food and water consumption, as well as urine and fecal collections. Test compounds were incorporated into the powdered diet listed above containing 3% chocolate flavoring (w/w, BioServ #7345) at 1.3 mg test compound per gram of diet to achieve an average daily nominal dose of 100 mg/kg/day. The actual dose received by each animal was later determined by measuring prepared diet consumption and body weight. Urine samples were collected in three daily periods from 24-48, 48-72, and 72-96 hours of drug dosing. Averaging these three 24 h periods allows for the more representative measurements of urination, fecal excretion, food consumption and water uptake for each animal. Phosphorus levels in the urine were determined by anion exchange chromatography using a Dionex ICS-3000 ion chromatography system. Urine samples were diluted 1:500 or 1:1000 and injected onto an IonPac AS18 analytical column (2×250 mm) using a potassium hydroxide eluent. Elution of urine phosphate ions was monitored via conductivity detector and reported as ppm relative to a standard ion solution containing phosphate. Daily urinary P output relative to the P consumed in the prepared diet for each animal was calculated. The percentage inhibition of phosphorus absorption was estimated by determining the reduction of this ratio compared to the control group (animals with no drug in chow). The differences between the means of control and treated groups were evaluated by t tests. In all experiments, one group was always included that had Renvela powder blended into their chow at 0.9% targeting a dose of 750 mg/kg.

human NaP2b (SLC34A2) = target: T2, human NaP2b (SLC34A2) (Homo sapiens, UniProt O95436); assay: Inhibition of NaP2b-mediated Pi (33P) uptake in transfected HEK293 cells, human NaP2b; format: cell-based; conditions: read-out: pIC50 range for human NaP2b (converted)
T2 construct: host or cells: HEK293
T2 sequence (O95436 1-690): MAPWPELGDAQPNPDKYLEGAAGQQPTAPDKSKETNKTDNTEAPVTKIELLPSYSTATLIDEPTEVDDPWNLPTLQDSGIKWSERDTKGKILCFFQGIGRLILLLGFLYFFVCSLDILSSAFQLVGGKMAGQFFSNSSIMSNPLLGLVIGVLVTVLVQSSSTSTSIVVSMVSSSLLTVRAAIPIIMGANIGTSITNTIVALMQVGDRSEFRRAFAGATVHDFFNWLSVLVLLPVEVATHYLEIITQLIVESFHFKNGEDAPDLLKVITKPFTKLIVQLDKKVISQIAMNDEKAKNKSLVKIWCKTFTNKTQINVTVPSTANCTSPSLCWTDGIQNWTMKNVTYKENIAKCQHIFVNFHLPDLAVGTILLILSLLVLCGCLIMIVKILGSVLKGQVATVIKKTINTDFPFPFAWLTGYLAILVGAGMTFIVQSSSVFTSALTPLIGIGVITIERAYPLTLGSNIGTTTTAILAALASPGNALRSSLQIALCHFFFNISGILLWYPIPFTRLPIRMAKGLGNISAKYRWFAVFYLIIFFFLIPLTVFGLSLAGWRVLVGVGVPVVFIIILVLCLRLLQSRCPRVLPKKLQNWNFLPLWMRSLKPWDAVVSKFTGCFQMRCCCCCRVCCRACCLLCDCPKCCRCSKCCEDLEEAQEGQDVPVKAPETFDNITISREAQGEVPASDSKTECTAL
Method in brief: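 HEK293 cells transiently transfected with human NaP2b (Thr inserted after residue 37, N39D), endogenous PiT transport pharmacologically silenced. Sodium or choline buffer, pH 7.4, with 100 uM KH2PO4, 33P orthophosphate and compound (0.1 nM–30 uM, twelve concentrations, duplicate). 3-30 min at room temperature, scintillation counting, pIC50 derived.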

[4] = Stability of compounds in simulated gastric fluid (SGF); format: in vitro ADME; conditions: simulated gastric fluid (3 mg/mL pepsin), incubation time 6 hr, relative to t=0
Method in brief: (§2)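 Compounds at […] were incubated 3 or 6 hr in USP simulated gastric fluid with 3 mg/mL pepsin or simulated intestinal fluid with 3 mg/mL pancreatin. Remaining compound was quantified by HPLC-UV or HPLC-MS peak area % and reported as percent of the t=0 level in the same medium.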

[5] = Stability of compounds in simulated intestinal fluid (SIF); format: in vitro ADME; conditions: simulated intestinal fluid (3 mg/mL pancreatin), incubation time 6 hr, relative to t=0
Method in brief: as §2

For O=C(NCc1cccc(C(F)(F)F)c1)c1ccnc(-c2cc(N3CCCCC3)ccc2NC(=O)c2cccc(CSCCCO)c2)c1 [Example 8.3], the “% recovered in feces” value [1] was less than 20% and the IC50 (rat NaP2b (SLC34A2)) was 1000 to 7940 nM.

In the case of CCN(CC)c1ccc(NC(=O)c2cccc(C(=O)N(C)CCN3CCOCC3)c2)c(-c2cc(C(=O)NCc3cccc(C(F)(F)F)c3)ccn2)c1 [Example 25], the AUC [2] is reported as less than 30 ng·h/mL, the Cmax [2] is reported as less than 30 ng/mL and the inhibition in vivo at 74 mg/kg/day ([3]; mean drug dose 74 mg/kg/day) is reported as 10 to 30%.

With CCN(CC)c1ccc(NC(=O)c2cccc(CSCCOCCOCCOCCOCCC(=O)NC(CO)(CO)CO)c2)c(-c2cc(C(=O)NCc3cccc(C(F)(F)F)c3)ccn2)c1 [Example 163, 2-(5-(diethylamino)-2-(3-(20-hydroxy-19,19-bis(hydroxymethyl)-17-oxo-5,8,11,14-tetraoxa-2-thia-18-azaicosyl)benzamido)phenyl)-N-(3-(trifluoromethyl)benzyl)isonicotinamide] the IC50 (human NaP2b (SLC34A2)) was 1000 to 7940 nM, the “% remaining, SGF” value [4] was greater than 80% and the IC50 (rat NaP2b (SLC34A2)) was 1000 to 7940 nM. For the same molecule, the inhibition in vivo at 100 mg/kg/day [3] was no more than 10% and the “% remaining, SIF” value [5] was 60-80%.

In the case of CCN(CC)c1ccc(NC(=O)c2cccc(CSCCOCCOCCOCCOCCC(=O)N(CCO)CCO)c2)c(-c2cc(C(=O)NCc3cccc(C(F)(F)F)c3)ccn2)c1 [Example 164, 2-(5-(diethylamino)-2-(3-(20-hydroxy-18-(2-hydroxyethyl)-17-oxo-5,8,11,14-tetraoxa-2-thia-18-azaicosyl)benzamido)phenyl)-N-(3-(trifluoromethyl)benzyl)isonicotinamide], the IC50 (human NaP2b (SLC34A2)) is reported as less than 1000 nM, the “% remaining, SGF” value [4] is reported as greater than 80% and the IC50 (rat NaP2b (SLC34A2)) is reported as 1000 to 7940 nM. For the same molecule, the inhibition in vivo at 100 mg/kg/day [3] was no more than 10% and the “% remaining, SIF” value [5] was 60-80%.

For CCN(CC)c1ccc(NC(=O)c2cccc(COCCOCCOCCOCCOCCOCCOCCOCCOC)c2)c(-c2cc(C(=O)NCc3cccc(C(F)(F)F)c3)ccn2)c1 [Example 173, 2-(2-(3-2,5,8,11,14,17,20,23,26-nonaoxaheptacosylbenzamido)-5-(diethylamino)phenyl)-N-(3-(trifluoromethyl)benzyl)isonicotinamide], the IC50 (human NaP2b (SLC34A2)) was less than 1000 nM, the “% remaining, SGF” value [4] was greater than 80% and the IC50 (rat NaP2b (SLC34A2)) was less than 1000 nM. For the same molecule, the inhibition in vivo at 90 mg/kg/day ([3]; mean drug dose 90 mg/kg/day) was no more than 10% and the “% remaining, SIF” value [5] was greater than 80%.

For CCN(CC)c1ccc(NC(=O)c2cccc(C(=O)N(C)CCN3CCC[C@H]3C(=O)NCCOCCOCCOCCOCCOCCOCCOCCOC)c2)c(-c2cc(C(=O)NCc3cccc(C(F)(F)F)c3)ccn2)c1 [Example 203, (S)—N^1-(2-(2-(2,5,8,11,14,17,20,23-octaoxapentacosan-25-ylcarbamoyl)pyrrolidin-1-yl)ethyl)-N^3-(4-(diethylamino)-2-(4-((3-(trifluoromethyl)benzyl)carbamoyl)pyridin-2-yl)phenyl)-N^1-methylisophthalamide], the IC50 (human NaP2b (SLC34A2)) was 1000 to 7940 nM, the “% remaining, SGF” value [4] was greater than 80% and the IC50 (rat NaP2b (SLC34A2)) was 1000 to 7940 nM. For the same molecule, the inhibition in vivo at 100 mg/kg/day [3] was no more than 10% and the “% remaining, SIF” value [5] was greater than 80%.

For CN(CCOCCOCCOCCC(=O)O)C(=O)c1cccc(C(=O)Nc2ccc(Cl)cc2-c2cc(C(=O)N[C@H]3CCCc4ccccc43)ccn2)c1 [Example 237, (S)-1-(3-(4-chloro-2-(4-(1,2,3,4-tetrahydronaphthalen-1-ylcarbamoyl)pyridin-2-yl)phenylcarbamoyl)phenyl)-2-methyl-1-oxo-5,8,11-trioxa-2-azatetradecan-14-oic acid], the “% remaining, SGF” value [4] was greater than 80%, the IC50 (rat NaP2b (SLC34A2)) was 1000 to 7940 nM and the inhibition in vivo at 130 mg/kg/day ([3]; mean drug dose 130 mg/kg/day) was no more than 10%. For the same molecule, the “% remaining, SIF” value [5] was greater than 80%.

In the case of CCN(CC)c1ccc(NC(=O)c2cccc(C(=O)N(C)CCN3CCN(CCOCCOCCOCCOCCOCCOCCOC)C(=O)C3)c2)c(-c2cc(C(=O)N[C@H]3CCCc4ccccc43)ccn2)c1 [Example 327, (S)—N1-(2-(4-(2,5,8,11,14,17,20-heptaoxadocosan-22-yl)-3-oxopiperazin-1-yl)ethyl)-N3-(4-(diethylamino)-2-(4-(1,2,3,4-tetrahydronaphthalen-1-ylcarbamoyl)pyridin-2-yl)phenyl)-N1-methylisophthalamide], the “% remaining, SGF” value [4] is reported as greater than 80%, the AUC [2] is reported as less than 10 ng·h/mL and the Cmax [2] is reported as less than 10 ng/mL. The IC50 (rat NaP2b (SLC34A2)) was 1000 to 7940 nM, the inhibition in vivo at 100 mg/kg/day [3] was 10 to 30% and the “% remaining, SIF” value [5] was greater than 80%.
